Tests used:
Type in all cases: cell-based, human
[1] = tested on: FU-DDLS-1 liposarcoma cell line; experiment: CellTiter-Glo viability, GR50, 72h; conditions: Homo sapiens; FU-DDL S-1, 72h; read-out: Half maximum effective concentration corrected for cell growth (GR50)
Method: (§1) Cell viability was measured using the CellTiter-Glo Luminescent Cell Viability Assay (Promega, Wisconsin, United States). For each experiment the same cell numbers were seeded as for the proliferation experiments. Seven drug concentrations were used, starting from 100μM with 10-fold dilutions and also a vehicle control appropriate for each drug (DMSO or ethanol). After 72h of drug or vehicle control treatment levels of ATP were measured with CellTiter-Glo. The data from six to nine biological replicates, each with three technical replicates were collected. A nonlinear regression model with different four-parameter log-logistic function was used for modelling of the drug dose-response using ‘GRmetrics’ R package version 1.8.1 [26]. The calculated GR50 metric is equivalent to the IC50 metric but takes into account the growth rate of cells. Therefore, it estimates better the effect of the compound on cell viability and allows for comparison between different cell lines with different growth rates.

[2] = tested on: GOT3 liposarcoma cell line; experiment: CellTiter-Glo viability, GR50, 72h; conditions: Homo sapiens; GOT3, 72h; read-out: Half maximum effective concentration corrected for cell growth (GR50)
Method: as §1

[3] = tested on: LPS141 liposarcoma cell line; experiment: CellTiter-Glo viability, GR50, 72h; conditions: Homo sapiens, LPS141; LPS 141, 72h; read-out: Half maximum effective concentration corrected for cell growth (GR50)
Method: as §1

[4] = tested on: LPS510 liposarcoma cell line; experiment: CellTiter-Glo viability, GR50, 72h; conditions: Homo sapiens; LPS 510, 72h; read-out: Half maximum effective concentration corrected for cell growth (GR50)
Method: as §1

[5] = tested on: LPS853 liposarcoma cell line; experiment: CellTiter-Glo viability, GR50, 72h; conditions: Homo sapiens; LPS 853, 72h; read-out: Half maximum effective concentration corrected for cell growth (GR50)
Method: as §1

[6] = tested on: LS2 liposarcoma cell line; experiment: CellTiter-Glo viability, GR50, 72h; conditions: Homo sapiens; LS2, 72h; read-out: Half maximum effective concentration corrected for cell growth (GR50)
Method: as §1

[7] = tested on: LiSa-2 liposarcoma cell line; experiment: CellTiter-Glo viability, GR50, 72h; conditions: Homo sapiens; LiSa-2, 72h; read-out: Half maximum effective concentration corrected for cell growth (GR50)
Method: as §1

[8] = tested on: NRH-LS1 liposarcoma cell line; experiment: CellTiter-Glo viability, GR50, 72h; conditions: Homo sapiens; NRH-LS1, 72h; read-out: Half maximum effective concentration corrected for cell growth (GR50)
Method: as §1

[9] = tested on: SA-4 liposarcoma cell line; experiment: CellTiter-Glo viability, GR50, 72h; conditions: Homo sapiens; SA-4, 72h; read-out: Half maximum effective concentration corrected for cell growth (GR50)
Method: as §1

[10] = tested on: SW872 liposarcoma cell line; experiment: CellTiter-Glo viability, GR50, 72h; conditions: Homo sapiens, SW872; SW 872, 72h; read-out: Half maximum effective concentration corrected for cell growth (GR50)
Method: as §1

[11] = tested on: T1000 liposarcoma cell line; experiment: CellTiter-Glo viability, GR50, 72h; conditions: Homo sapiens; T1000, 72h; read-out: Half maximum effective concentration corrected for cell growth (GR50)
Method: as §1

[12] = tested on: T449 liposarcoma cell line; experiment: CellTiter-Glo viability, GR50, 72h; conditions: Homo sapiens; T449, 72h; read-out: Half maximum effective concentration corrected for cell growth (GR50)
Method: as §1

[13] = tested on: T778 liposarcoma cell line; experiment: CellTiter-Glo viability, GR50, 72h; conditions: Homo sapiens; T778, 72h; read-out: Half maximum effective concentration corrected for cell growth (GR50)
Method: as §1

liposarcoma cell lines = experiment: IncuCyte cell proliferation assay (growth reducing/arresting concentration); conditions: complete growth arrest between 96 and 120h
Method: The cellular proliferation rate was measured using the IncuCyte ZOOM live-cell imaging system (Essen Bioscience, Birmingham, UK) with the corresponding software application (version 2013BRev1). First the growth rate for each cell line was established to estimate the seeding numbers of cells corresponding to 15-30% of confluence at the start of the experiment and maximum 70% after 72h. The drug treatment was initiated approximately 18h after seeding. The proliferation rate was measured as cell confluence over time through the acquisition of photographs under phase contrast every third hour for the entire duration of the drug treatment. During the drug treatment, media were not changed, and cells were not split. The growth reducing drug concentration was defined as lowest drug concentration leading to significant decrease of cellular growth between 40 and 72h after start of treatment. To determine that concentration, plots were generated using IncuCyte software and differences in growth between 40 and 72h were calculated using least-square means with the '[…] package version 1.4.3 [25]. Growth arresting concentrations were defined as minimal drug concentration under which cell confluence between 96 and 120h increases by less than 3%. Though growth arrest occurred much earlier, these time points ensured that the growth arrest is a stable phenomenon. These growth arresting concentrations were used for drug withdrawal, apoptosis and cell cycle experiments. All the data were verified with the plots. The presented values correspond to median values from two ([…], all compounds) to five (all cell lines, triptolide) biological replicates.

| IC50 [1] | IC50 [2] | IC50 [3] | IC50 [4] | IC50 [5] | IC50 [6] | IC50 [7] | IC50 [8] | IC50 [9] | IC50 [10] | IC50 [11] | IC50 [12] | IC50 [13] | SMILES | concentration arresting the majority of the cell lines (liposarcoma cell lines) |
| --- | --- | --- | --- | --- | --- | --- | --- | --- | --- | --- | --- | --- | --- | --- |
| 1 nM | 5 nM | 6 nM | 3 nM | 1 nM | 8 nM | 8 nM | 1 nM | 10 nM | 4 nM | 6 nM | 1 nM | 3 nM | O=C(/C=C/c1cccnc1)NCCCCC1CCN(C(=O)c2ccccc2)CC1 [APO866] | 10 nM |
| 12 nM | 22 nM | 102 nM | 33 nM | 18 nM | 94 nM | 21 nM | 103 nM | 44 nM | 70 nM | 10 nM | 25 nM | 25 nM | Cn1cc(CNCC2CCN(c3ncc(C(=O)NO)cn3)CC2)c2ccccc21 [JNJ-26481585] |  |
| 49 nM | 187 nM | 11 nM | 93 nM | 4 nM | 358 nM | 234 nM | 69 nM | 30 nM | 2 nM | 17 nM | 712 nM | 96 nM | COCCn1c2c([n+](Cc3cnccn3)c1C)C(=O)c1ccccc1C2=O [YM155] |  |

| SMILES | IC50 [1] | IC50 [2] | IC50 [3] | IC50 [4] | IC50 [5] | IC50 [6] | IC50 [7] | IC50 [8] | IC50 [9] | IC50 [10] | IC50 [11] | IC50 [12] | IC50 [13] | concentration arresting the majority of the cell lines (liposarcoma cell lines) |
| --- | --- | --- | --- | --- | --- | --- | --- | --- | --- | --- | --- | --- | --- | --- |
| CC(C)[C@]12O[C@H]1[C@@H]1O[C@]13[C@]1(O[C@H]1C[C@H]1C4=C(CC[C@@]13C)C(=O)OC4)[C@@H]2O [Triptolide] | 8 nM | 7 nM | 12 nM | 5 nM | 5 nM | 6 nM | 9 nM | 7 nM | 13 nM | 2 nM | 8 nM | 8 nM | 8 nM | 10 nM |
